Key:
Type in all cases: in vivo
[1] = test system: canarygrass (Phalaris minor); test: Test C pre-/postemergence plant response; details: Preemergence
In short: (§1)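 Ratings ran from 0 (no effect) to 100 (complete control) and were made visually against untreated controls 15–25 days after treatment in a controlled growth environment. Application was preemergence and, for some chemicals, postemergence at the 1- to 4-leaf stage (2–18 cm). Formulation was a non-phytotoxic solvent mixture with surfactant.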

[2] = test system: downy bromegrass (Bromus tectorum); test: Test C pre-/postemergence plant response; details: Preemergence
In short: as §1

[3] = test system: blackgrass (Alopecurus myosuroides); test: Test C pre-/postemergence plant response; details: Preemergence
In short: as §1

[4] = test system: pigweed (Amaranthus retroflexus); test: Test C pre-/postemergence plant response; details: Preemergence
In short: as §1

[5] = test system: annual bluegrass (Poa annua); test: Test C pre-/postemergence plant response; details: Preemergence
In short: as §1

[6] = test system: spring barley (Hordeum vulgare); test: Test C pre-/postemergence plant response; details: Preemergence
In short: as §1

[7] = test system: winter wheat (Triticum aestivum); test: Test C pre-/postemergence plant response; details: Preemergence
In short: as §1

wild oat (Avena fatua) = test: Test C pre-/postemergence plant response; details: Preemergence
In short: as §1

[8] = test system: Italian ryegrass (Lolium multiflorum); test: Test C pre-/postemergence plant response; details: Preemergence
In short: as §1

[9] = test system: green foxtail (Setaria viridis); test: Test C pre-/postemergence plant response; details: Preemergence
In short: as §1

[10] = test system: wild mustard (Sinapis arvensis); test: Test C pre-/postemergence plant response; details: Preemergence
In short: as §1

[11] = test system: woolly cupgrass (Eriochloa villosa); test: Test B pre-/postemergence plant response; details: for Cupgrass, Woolly plant response rating: 8 g ai/ha
In short: (§2)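 Visual scoring from 0 (no effect) to 100 (complete control) against untreated controls was done 13 to 15 days after greenhouse treatment. Chemicals were formulated in a surfactant-containing non-phytotoxic solvent and applied to soil preemergence or to 1- to 4-leaf (2-18 cm) plants postemergence.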

[12] = test system: large crabgrass (Digitaria sanguinalis); test: Test B pre-/postemergence plant response; details: for Crabgrass, Large plant response rating: 8 g ai/ha
In short: as §2

[13] = 8 g ai/ha, scale 0 to 100 (0 no effect, 100 complete control)
[14] = 16 g ai/ha, scale 0 to 100 (0 no effect, 100 complete control)
[15] = 31 g ai/ha, scale 0 to 100 (0 no effect, 100 complete control)
[16] = 62 g ai/ha, scale 0 to 100, 0 no effect, 100 complete control
[17] = Postemergence, 16 g ai/ha, scale 0 to 100
[18] = Postemergence, 31 g ai/ha, scale 0 to 100
[19] = Postemergence, 62 g ai/ha, scale 0 to 100, 0 no effect, 100 complete control
[20] = Preemergence, 16 g ai/ha, scale 0 to 100 (0 no effect, 100 complete control)
[21] = Preemergence, 31 g ai/ha, 0 to 100 scale, 0 no effect, 100 complete control
[22] = Preemergence, 62 g ai/ha, scale 0 to 100

Compound: Cc1cc(-c2ccc(Cl)cc2)nn1-c1c(OC(=O)c2ccccc2)cnn(C)c1=O [Compound 48]
- Plant response rating, Canarygrass [1, 13]: 0
- Plant response rating, Canarygrass [1, 14]: 0
- Plant response rating, Canarygrass [1, 15]: 85
- Plant response rating, Canarygrass [1, 16]: 95
- Plant response rating, Bromegrass, Downy [2, 13]: 0
- Plant response rating, Bromegrass, Downy [2, 14]: 0
- Plant response rating, Bromegrass, Downy [2, 15]: 0
- Plant response rating, Bromegrass, Downy [2, 16]: 40
- Plant response rating, Blackgrass [3, 13]: 35
- Plant response rating, Blackgrass [3, 14]: 50
- Plant response rating, Blackgrass [3, 15]: 65
- Plant response rating, Blackgrass [3, 16]: 98
- Plant response rating, Pigweed [4, 13]: 0
- Plant response rating, Pigweed [4, 14]: 0
- Plant response rating, Pigweed [4, 15]: 0
- Plant response rating, Pigweed [4, 16]: 0
- Plant response rating, Bluegrass [5, 13]: 0
- Plant response rating, Bluegrass [5, 14]: 0
- Plant response rating, Bluegrass [5, 15]: 0
- Plant response rating, Bluegrass [5, 16]: 0
- Plant response rating, Barley, Spring [6, 13]: 0
- Plant response rating, Barley, Spring [6, 14]: 15
- Plant response rating, Barley, Spring [6, 15]: 30
- Plant response rating, Barley, Spring [6, 16]: 80
- Plant response rating, Wheat, Winter [7, 13]: 0
- Plant response rating, Wheat, Winter [7, 14]: 0
- Plant response rating, Wheat, Winter [7, 15]: 20
- Plant response rating, Wheat, Winter [7, 16]: 70
- Plant response rating, Oat, Wild (wild oat (Avena fatua); [13]): 0
- Plant response rating, Oat, Wild (wild oat (Avena fatua); [14]): 0
- Plant response rating, Oat, Wild (wild oat (Avena fatua); [15]): 50
- Plant response rating, Oat, Wild (wild oat (Avena fatua); [16]): 70
- Plant response rating, Ryegrass, Italian [8, 13]: 40
- Plant response rating, Ryegrass, Italian [8, 14]: 40
- Plant response rating, Ryegrass, Italian [8, 15]: 90
- Plant response rating, Ryegrass, Italian [8, 16]: 100
- Plant response rating, Foxtail, Green [9, 13]: 35
- Plant response rating, Foxtail, Green [9, 14]: 95
- Plant response rating, Foxtail, Green [9, 15]: 100
- Plant response rating, Foxtail, Green [9, 16]: 100
- Plant response rating, Mustard, Wild [10, 15]: 0
- Plant response rating, Mustard, Wild [10, 16]: 0
- Cupgrass, Woolly plant response rating ([11]; postemergence, 0-100 scale): 75
- Plant response rating, Cupgrass, Woolly [11, 17]: 85
- Plant response rating, Cupgrass, Woolly [11, 18]: 100
- Plant response rating, Cupgrass, Woolly [11, 19]: 100
- Plant response rating, Cupgrass, Woolly [11, 20]: 0
- Plant response rating, Cupgrass, Woolly [11, 21]: 0
- Plant response rating, Cupgrass, Woolly [11, 22]: 0
- Cupgrass, Woolly plant response rating ([11]; Preemergence, scale 0 to 100): 0
- Crabgrass, Large plant response rating ([12]; postemergence, 0-100 scale): 70
- Plant response rating, Crabgrass, Large [12, 17]: 85
- Plant response rating, Crabgrass, Large [12, 18]: 90
- Plant response rating, Crabgrass, Large [12, 19]: 100
- Plant response rating, Crabgrass, Large [12, 20]: 0
- Plant response rating, Crabgrass, Large [12, 21]: 0
- Plant response rating, Crabgrass, Large [12, 22]: 0
- Crabgrass, Large plant response rating ([12]; Preemergence, scale 0 to 100): 0

Reference: patent publication US20100267561A1, “HERBICIDAL PYRIDAZINONE DERIVATIVES” (priority 2007, published 2010)
